Reference: PMC9502272, “A Metabolomics Approach for Predicting OATP1B-Type Transporter-Mediated Drug–Drug Interaction Liabilities” (Pharmaceutics, 2022)
Counter-ions that a name gives are not always drawn.

Molecular target: T1, Oatp1b2 (Mus musculus, UniProt Q9JJL3)
T1 sequence (Q9JJL3 1-689): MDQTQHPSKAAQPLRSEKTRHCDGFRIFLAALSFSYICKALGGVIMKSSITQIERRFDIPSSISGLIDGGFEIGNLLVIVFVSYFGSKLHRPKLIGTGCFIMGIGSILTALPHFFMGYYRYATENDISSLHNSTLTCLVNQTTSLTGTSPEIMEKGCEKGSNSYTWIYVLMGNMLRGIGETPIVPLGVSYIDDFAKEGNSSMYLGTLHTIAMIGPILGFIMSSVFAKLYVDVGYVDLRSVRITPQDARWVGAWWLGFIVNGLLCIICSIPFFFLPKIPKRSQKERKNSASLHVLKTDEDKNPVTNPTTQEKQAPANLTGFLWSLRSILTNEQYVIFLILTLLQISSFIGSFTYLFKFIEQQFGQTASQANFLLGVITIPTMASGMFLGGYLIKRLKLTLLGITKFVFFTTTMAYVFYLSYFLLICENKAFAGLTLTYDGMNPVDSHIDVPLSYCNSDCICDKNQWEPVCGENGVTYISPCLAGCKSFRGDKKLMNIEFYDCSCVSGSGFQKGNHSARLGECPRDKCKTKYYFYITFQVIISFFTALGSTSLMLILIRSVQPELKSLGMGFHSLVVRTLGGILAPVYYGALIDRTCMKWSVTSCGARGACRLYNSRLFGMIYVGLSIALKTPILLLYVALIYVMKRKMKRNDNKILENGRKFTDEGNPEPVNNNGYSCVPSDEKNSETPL
Assay: Untargeted metabolomics of plasma from untreated wild-type and Oatp1b2(−/−) mice
Conditions: for Fold of Change KO/WT: plasma of untreated Oatp1b2-deficient (KO) vs wild-type (WT) mice, semi-quantitative, positive = higher in KO, n = 6 per group; for Mean value KO: plasma of untreated Oatp1b2-deficient mice; for Mean value KO / Mean value WT: raw area counts rescaled to median = 1; for Mean value WT: plasma of untreated wild-type mice

| Compound | Fold of Change KO/WT | Mean value KO | Mean value WT |
| --- | --- | --- | --- |
| CCCCCCCC/C=C\CCCCCCCC(=O)OC[C@@H](O)COP(=O)(O)OCCN [1-oleoyl-GPE (18:1)] | 2.05 | 1.30 | .634 |
| CCCCCCCC/C=C\CCCCCCCC(=O)OCC(O)COP(=O)(O)OCC(O)CO (stereo not drawn) [1-oleoyl-GPG (18:1)] | 8.19 | 1.80 | .219 |
| CCCCCCCC/C=C\CCCCCCCC(=O)OC[C@@H](O)COP(=O)(O)OC1[C@H](O)[C@H](O)C(O)[C@H](O)[C@H]1O (stereo partly drawn) [1-oleoyl-GPI (18:1)] | 1.87 | 1.36 | .729 |
| CC/C=C\C/C=C\C/C=C\CCCCCCCC(=O)O[C@H](COC(=O)CCCCCCC/C=C\CCCCCC)COP(=O)([O-])OCC[N+](C)(C)C [1-palmitoleoyl-2-linolenoyl-GPC (16:1/18:3)] | 1.86 | 1.46 | .784 |
| CCCCCC/C=C\CCCCCCCC(=O)OC[C@@H](O)COP(=O)([O-])OCC[N+](C)(C)C [1-palmitoleoyl-GPC (16:1)] | 1.97 | 1.31 | .666 |
| CCCCCCCC/C=C\CCCCCCCC(=O)O[C@H](COC(=O)CCCCCCCCCCCCCCC)COP(=O)([O-])OCC[N+](C)(C)C [1-palmitoyl-2-oleoyl-GPC (16:0/18:1)] | 1.30 | 1.08 | .834 |
| CCCCCCCC/C=C\CCCCCCCC(=O)O[C@H](COC(=O)CCCCCCCCCCCCCCC)COP(=O)(O)OCCN [1-palmitoyl-2-oleoyl-GPE (16:0/18:1)] | 1.46 | 1.24 | .847 |
| CCCCCCCCCCCCCCCCCC(=O)O[C@H](COC(=O)CCCCCCCCCCCCCCC)COP(=O)([O-])OCC[N+](C)(C)C [1-palmitoyl-2-stearoyl-GPC (16:0/18:0)] | 1.14 | 1.09 | .960 |
| CCCCCCCCCCCCCCCC(=O)OC[C@@H](O)COP(=O)([O-])OCC[N+](C)(C)C [1-palmitoyl-GPC (16:0)] | 1.29 | 1.12 | .868 |
| CCCCCCCCCCCCCCCC(=O)OC[C@@H](O)COP(=O)(O)OCCN [1-palmitoyl-GPE (16:0)] | 1.73 | 1.33 | .765 |
| CCCCCCCCCCCCCCCC(=O)OC[C@@H](O)COP(=O)(O)OCC(O)CO (stereo partly drawn) [1-palmitoyl-GPG (16:0)] | 5.40 | 2.00 | .371 |
| O=C(O)Cc1cn(C2O[C@H](CO)[C@@H](O)[C@H]2O)cn1 (stereo partly drawn) [1-ribosyl-imidazoleacetate] | 1.64 | 1.34 | .818 |
| CCCCCCCC/C=C\CCCCCCCC(=O)O[C@H](COC(=O)CCCCCCCCCCCCCCCCC)COP(=O)([O-])OCC[N+](C)(C)C [1-stearoyl-2-oleoyl-GPC (18:0/18:1)] | 1.20 | 1.07 | .892 |
| CCCCCCCCCCCCCCCCCC(=O)OC[C@@H](O)COP(=O)(O)OCCN [1-stearoyl-GPE (18:0)] | 1.34 | 1.16 | .867 |
| CCCCCCCCCCCCCCCCCC(=O)OC[C@@H](O)COP(=O)(O)OCC(O)CO (stereo partly drawn) [1-stearoyl-GPG (18:0)] | 4.16 | 1.76 | .423 |
| CSC=CC(O)C(O)C(=O)O (stereo not drawn) [2,3-dihydroxy-5-methylthio-4-pentenoate (DMTPA)] | 1.34 | 1.23 | .915 |
| CC(C(=O)O)c1ccc(O)cc1 (stereo not drawn) [2-(4-hydroxyphenyl)propionate] | 1.30 | 1.16 | .895 |
| COC1=C(O)[C@@H]([C@@H](O)CO)OC1=O [2-O-methylascorbic acid] | 1.16 | 1.08 | .927 |
| Cc1ccc(OS(=O)(=O)O)c(N)c1 [2-amino-p-cresol sulfate] | 4.28 | 1.86 | .435 |
| CCC(C)C(O)C(=O)O (stereo not drawn) [2-hydroxy-3-methylvalerate] | 3.15 | 2.33 | .738 |
| CCCCCC/C=C\CCCCCCCC(=O)O[C@H](CO)COP(=O)([O-])OCC[N+](C)(C)C [2-palmitoleoyl-GPC (16:1)] | 1.95 | 1.36 | .696 |
| CCC(CO)C(=O)O (stereo not drawn) [3-hydroxy-2-ethylpropionate] | 1.25 | 1.10 | .879 |
| O=C(O)CCCCCCCCC(O)CC(=O)O (stereo not drawn) [3-hydroxydodecanedioate] | 4.32 | 1.64 | .380 |
| O=S(=O)(O)Oc1c[nH]c2ccccc12 [3-indoxyl sulfate] | 1.48 | 1.19 | .804 |
| O=C(O)CCc1ccccc1.O=C(O)CCc1ccccc1 [3-phenylpropionate (hydrocinnamate)] | 1.62 | 1.39 | .855 |
| CC(=O)Nc1ccc(C(=O)O)cc1 [4-acetamidobenzoate] | 2.14 | 1.46 | .685 |
| CC(C)CCC[C@@H](C)[C@H]1CC[C@H]2[C@@H]3CCC4=CC(=O)CC[C@]4(C)[C@H]3CC[C@]12C [4-cholesten-3-one] | 1.29 | 1.12 | .870 |
| CCc1ccc(OS(=O)(=O)[O-])cc1.[K+] [4-ethylphenylsulfate] | 17.2 | 4.08 | .238 |
| C=Cc1ccc(OS(=O)(=O)O)cc1 [4-vinylphenol sulfate] | 1.55 | 1.32 | .847 |
